# From patent US10829522B2, “Peptide inhibiting colonization by pathogenic bacteria, and colonization inhibitor including same” (OSAKA UNIVERSITY, priority 2016, dated 2020)
# pKd: −log10 of the molar value.
# Key:
# [1] = test system: HB101 cof adhesion to Caco2 cells; test: ETEC adhesion inhibitory activity using Caco2 cells; assay type: cell-based, Escherichia coli; conditions: 1, 10, 100 μg/mL
# Method: First, Caco2 cells were dispersed using Dulbecco's Modified Eagle's Medium (DMEM) containing 50 μg/mL gentamicin and 10% fetal bovine serum, the cell concentration was measured using a blood cell counting chamber and diluted to 3.0×10^5 cells/mL. Dilution liquid was added to a 6-well plate each in an amount of 500 μL, and culture was performed by allowing the plate to stand still in a CO2 incubator at 5% CO2 and 37° C. for 48 hours. The cultured Caco2 cells were washed with PBS twice. After washing, DMEM containing 100 μg/mL ampicillin and 1% D-mannose was filtrated by passing through a 0.22 μm filter, then, the solution was added each in an amount of 500 μL to each well.
# Next, a small amount of the glycerol stock of HB101 cof was scraped off and added to LB medium containing 100 μg/mL ampicillin, and shaking culture was carried out overnight at 25° C. The culture liquid was suitably diluted and OD660 of the culture liquid was calculated using a turbidimeter. The culture liquid was serially diluted and CFU (colony forming unit) was measured. From the measured CFU, the concentration (cells/mL) of HB101 cof at OD660=1.0 was calculated. This calculated value was used to determine the concentration of HB101 cof later. […]
# ETEC adhesion inhibitory activity was evaluated in the same manner as in Example 9 using CofJ^4-16-GCN4. […]
# ΔN28-CofB = test: Isothermal titration calorimetry, interaction with ΔN28-CofB; assay type: binding, enterotoxigenic Escherichia coli (ETEC); conditions: ITC; for pKd: 25° C., 20 mM Tris-HCl (pH 8.0), 150 mM NaCl, ΔN28-CofB in terms of trimer, read-out: dissociation constant Kd value; for binding affinity to ΔN28-CofB compared with the binding affinity between CofJ and ΔN28-CofB: stronger than CofJ
# Method: The expression and purification methods were carried out according to past papers (Fukakusa, S, et al. Acta Cryst. 2012, D68, 1418-1429; Kawahara, K, et al. J. Mol. Biol, 2016, 428, 1209-1226).
# Interaction analysis was performed using CofB, CofJ and ΔN24-CofJ prepared by the above methods. An isothermal titration calorimeter Microcal iTC 200 (manufactured by GE Healthcare) was used for analysis of the interaction between the secretory protein CofJ and ΔN28-CofB. A 0.59 mM CofJ solution was charged in a titration syringe and a 28.5 μM (in terms of trimer) ΔN28-CofB solution was charged in a measuring cell, respectively, and the interaction of them was evaluated by directly observing heat changes that occur upon dropping the CofJ solution into the ΔN28-CofB solution. Titration conditions were such that the initial dropping amount was 1 μL, the dropping amount at the second and subsequent times was 2 μL, and dropping was performed 20 times in total every 120 seconds. The measurement temperature was 25° C., and the solvent was 20 mM Tris-HCl (pH 8.0), 150 mM NaCl. An exothermic change was observed by dropping the CofJ solution, which converged to the same level as the heat of dilution as the titration progressed. As a result of analysis of the obtained data using an analysis software Origin (Microcal), binding of CofJ and ΔN28-CofB was observed. The dissociation constant Kd value of both was 0.2 μM.
# Next, in order to investigate the contribution to binding to pili in the N-terminal region (1 to 24) of the secretory protein CofJ, analysis of the interaction between ΔN24-CofJ and ΔN28-CofB was carried out using an isothermal titration calorimeter Microcal iTC 200 (manufactured by GE Healthcare). A 0.59 mM ΔN24-CofJ solution was charged in a titration syringe and a 28.5 μM (in terms of trimer) ΔN28-CofB solution was charged in a measuring cell, respectively, and the interaction of them was evaluated by directly observing heat changes that occur upon dropping the ΔN24-CofJ solution into the ΔN28-CofB solution. No change in caloric value due to dropping of the ΔN24-CofJ solution was observed.
# Furthermore, in order to investigate the contribution to binding to pili in the N-terminal region (1 to 24) of the secretory protein CofJ, analysis of the interaction between a synthetic peptide consisting of 24 amino acid residues at the N terminal of CofJ (CofJ^1-24 peptide) purchased from Scrum Co., Ltd. and ΔN28-CofB was carried out using an isothermal titration calorimeter Microcal iTC200 (manufactured by GE Healthcare) in the same manner as described above. A 2 mM CofJ^1-24 peptide solution was charged in a titration syringe and a 33.9 μM (in terms of trimer) ΔN28-CofB solution was charged in a measuring cell, respectively, and the interaction of them was evaluated by directly observing heat changes that occur upon dropping the CofJ^1-24 peptide solution into the ΔN28-CofB solution. An exothermic change was observed by dropping the CofJ^1-24 peptide solution, which converged to the same level as the heat of dilution as the titration progressed. As a result of analysis of the obtained data using an analysis software Origin, binding of the CofJ^1-24 peptide and ΔN28-CofB was observed. The dissociation constant Kd value of both was 4 μM.
# Next, in order to investigate the binding specificity of the CofJ^1-24 peptide, analysis of the interaction between a synthetic random peptide (CofJpepR) purchased from Scrum Co., Ltd. and ΔN28-CofB was carried out using an isothermal titration calorimeter Microcal iTC 200 (manufactured by GE Healthcare). A 2 mM random peptide solution was charged in a titration syringe and a 28.5 μM (in terms of trimer) ΔN28-CofB solution was charged in a measuring cell, respectively, and the interaction of them was evaluated by directly observing heat changes that occur upon dropping the […] into the ΔN28-CofB solution. No change in caloric value due to dropping of the random peptide solution was observed. […]
# [2] = test system: binding of CofJ and Trx-His-ΔN28-CofB; test: Pull down assay using a Ni column, inhibition of CofB/CofJ binding; set-up: species or system enterotoxigenic Escherichia coli (ETEC); conditions: SDS-PAGE
# From the text: To examine whether the CofJ^1-24-GCN4 inhibitory peptide is capable of inhibiting the binding of CofB and CofJ, it was confirmed in the in vitro experiment system by pull down assay using a Ni column. For experiments, ΔN28-CofB (Trx-His-ΔN28-CofB), CofJ, CofJ^1-24-GCN4, a CofJ^1-24 peptide and a peptide (CofJpepR) in which the amino acid sequence of the CofJ^1-24 peptide was randomized, with added thioredoxin tag (Trx) and His tag, were used. The sequence of CofJpepR is […] (SEQ ID NO: 22).
# (§1) Solutions mixed so that the concentration of Trx-His-ΔN28-CofB was 1 μM and the concentration of CofJ^1-24-GCN4 was (0, 0.5, 1.0, 2.0, 5.0, 10.0 μM) were allowed to stand still on ice overnight. Further, CofJ was mixed so that the final concentration became 1 μM, and the mixtures were allowed to stand still on ice for 1 hour, to obtain experiment samples. Each sample was applied to a Ni column equilibrated with 20 mM Tris-HCl, 150 mM NaCl, pH 8.0, and the column was washed with 20 mM Tris-HCl, 150 mM NaCl, 15 mM Imidazole, pH 8.0. Thereafter, elution was performed with 20 mM Tris-HCl, 150 mM NaCl, 300 mM Imidazole, pH 8.0, and the eluted fraction was confirmed by SDS-PAGE.
# Also for the CofJ^1-24 peptide and CofJpepR, the inhibition ability thereof was investigated by the same method. Specifically, solutions mixed so that the concentration of Trx-His-ΔN28-CofB was 1 μM and the concentration of the CofJ^1-24 peptide and CofJpepR was 1000 μM were allowed to stand still on ice overnight. Further, CofJ was mixed so that the final concentration became 1 μM, and the mixtures were allowed to stand still on ice for 1 hour, to obtain experiment samples. The pull down assay was performed in the same manner as described above. […] From this, it is considered that CofJ^1-24-GCN4 can inhibit the binding between CofB and CofJ by strongly binding with CofB by trimerizing.
# In order to investigate whether the CofJ^4-16-GCN4 inhibitory peptide can inhibit the binding of CofB and CofJ, it was confirmed in the in vitro experimental system by a pull down assay using a Ni column. For the experiment, ΔN28-CofB (Trx-His-ΔN28-CofB), CofJ and CofJ^4-16-GCN4, with added thioredoxin tag (Trx) and His tag (His), were used.
# as §1, with “CofJ^4-16-GCN4” for “CofJ^1-24-GCN4”, “Thereafter, elution was performed with 20 mM Tris-HCl, 150 mM NaCl, 300 mM Imidazole, pH 8.0, and the eluted fraction was confirmed by SDS-PAGE.” left out
# [3] = peptide premixed at a concentration not lower than that of CofJ (1 μM), 0.5-10.0 μM tested
# [4] = peptide 1000 μM (1000 times that of CofJ, 1 μM)
Substance,inhibition of colonization of HB101 cof to Caco2 cells [1],pKd (ΔN28-CofB),binding affinity to ΔN28-CofB compared with the binding affinity between CofJ and ΔN28-CofB (ΔN28-CofB),"inhibition of the binding of CofJ and Trx-His-ΔN28-CofB [2, 3]","inhibition of the binding of CofJ and Trx-His-ΔN28-CofB [2, 4]",binding to ΔN28-CofB (change in caloric value) (ΔN28-CofB; 28.5 μM ΔN28-CofB in cell)
"CofJ^4-16-GCN4: GPLG, SSEGGAFTVNMPK (SEQ ID NO: 23), linker TSGGG (SEQ ID NO: 9) and GCN4 sequence (SEQ ID NO: 6); expressed in E. coli",inhibits colonization of HB101 cof to Caco2 cells in concentration-dependent manner,7.10,about 2.5 times,strongly inhibited,,
"SPSSSEGGAFTVNMPKTSTVDDIR [CofJ^1-24 peptide, reference compound]",,5.40,,,hardly inhibited,
"CofJ^1-24-GCN4: GPLG, CofJ 1-24 sequence (SEQ ID NO: 1), linker TSGGG (SEQ ID NO: 9) and GCN4 sequence (SEQ ID NO: 6); expressed in E. coli",inhibits colonization of HB101 cof to Caco2 cells in concentration-dependent manner,7.40,about 5 times,strongly inhibited,,
"NPSGFDKSGSSTTRTPAMSVIVDE [CofJpepR, reference compound]",,,,,can not be inhibited at all,do not bind
"SSEGGAFTVNMPK [CofJ^4-16 peptide, reference compound]",,5.40,,,,
